From PMC12051620, “Molecular basis underlying the specificity of an antagonist AA92593 for mammalian melanopsins” (The Journal of Biological Chemistry, 2025)

Tests used:
mouse melanopsin WT = target: T1, mouse melanopsin WT (Mus musculus, UniProt Q9QXZ9); experiment: GsX GloSensor assay with Gsα/q11; type: cell-based; conditions: COS-1 cells
T1 construct: expressed in transfected cells; host or cells: COS-1
T1 sequence (Q9QXZ9 1-381 limits assumed): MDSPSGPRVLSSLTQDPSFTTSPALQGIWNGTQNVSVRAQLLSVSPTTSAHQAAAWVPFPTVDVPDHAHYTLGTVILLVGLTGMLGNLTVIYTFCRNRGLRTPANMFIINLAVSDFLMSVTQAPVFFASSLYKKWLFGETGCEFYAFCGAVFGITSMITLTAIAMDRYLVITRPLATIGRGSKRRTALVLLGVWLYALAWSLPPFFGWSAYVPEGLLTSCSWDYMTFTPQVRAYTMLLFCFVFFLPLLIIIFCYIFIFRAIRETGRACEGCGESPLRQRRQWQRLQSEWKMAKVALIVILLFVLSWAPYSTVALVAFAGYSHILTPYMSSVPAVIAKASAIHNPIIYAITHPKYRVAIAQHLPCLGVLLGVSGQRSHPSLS
Description: To quantify the antagonistic effects of AA92593 on mammalian melanopsins, we used the GsX GloSensor assay ([12], [13], [14]). This assay measures GPCR-induced increases in intracellular cAMP levels even for Gq-, Gi/o-, or G12-coupled receptors by using Gsα chimeras ([12], [13], [14]). Because melanopsin is primarily coupled with Gq-type G proteins, a Gsα mutant with 11 C-terminal sequence of Gqα (Gsα/q11) was expressed in COS-1 cells with melanopsin and a luciferase-based cAMP biosensor (see “Experimental procedures”) ([15]). This assay enables the measurement of Gq activation by melanopsin as cAMP production (an increase in luminescence). In this study, we used C-terminal–truncated melanopsin constructs to increase the expression levels with minimal compromise in functionality ([9], [16], [17], [18], [19]). […] In addition, the C-terminal region is located far from the binding site of AA92593 (see below). Hereafter, the C-terminal–truncated melanopsin constructs are named as “WT.”
In the constructs for melanopsin expression (opsin name - GenBank ID: human melanopsin - NM_033282.4, mouse melanopsin - NM_013887.2, Xenopus Opn4x - NM_001085674.1, chicken opn4-1 - NM_001397961.1, B. belcheri melanopsin - AB205400.1, and B. lanceolatum melanopsin - MF464477.1), the C-terminal amino acid residues (94, 140, 200, 214, 296, and 308 residues for human ([9]), mouse ([9]), Xenopus, chicken, belcheri ([16]), and lanceolatum melanopsins, respectively) were removed, the 1D4 tag sequence (ETSQVAPA) was added, and inserted into the EcoRI/NotI site in a mammalian expression vector pMT. Jumping spider rhodopsin-1 (GenBank ID: AB251846.1) was also added with the 1D4 tag and inserted into pMT vector. Human and mouse melanopsins, and jumping spider rhodopsin-1 in pCDNA3.1 were kindly provided from Drs. Akihisa Terakita and Mitsumasa Koyanagi (Osaka Metropolitan University). In this paper, each opsin with the C-terminal sequence modifications as described above is denoted “WT.” Bovine Gsα and its mutants Gsα/q11 and Gsα/i11 (C-terminal 11 residues are replaced with Gqα and Giα, respectively) were also inserted into the pMT vector. The GFP-tagged melanopsin constructs, in which EGFP protein fused with C-termini of melanopsins, were prepared as previously described ([9], [50]). […]
For GloSensor assay, opsins, GloSensor assay sensor (coded by pGlo-22F), and NanoBiT-tagged G proteins were transiently expressed in COS-1 cells (kindly provided from Dr David Farrens, Oregon Health and Science University) using PEI as described previously ([24], [52]). […] For GFP-fluorescence microscopy, a 35-mm cell culture dish (IWAKI) was transfected with 2 μg melanopsin-GFP plasmid and 8 μg PEI in 400 μl Opti-mem and 1.2 ml D-MEM. […]

human melanopsin = target: T2, human melanopsin (Homo sapiens, UniProt Q9UHM6); experiment: GloSensor cAMP assay via endogenous G proteins; type: cell-based; parameters: the C-terminal amino acid residues (94, 140, 200, 214, 296, and 308 residues); expressed in transfected cells; host or cells: COS-1; conditions: COS-1 cells, no exogenous G protein
T2 sequence (Q9UHM6 1-384 limits assumed): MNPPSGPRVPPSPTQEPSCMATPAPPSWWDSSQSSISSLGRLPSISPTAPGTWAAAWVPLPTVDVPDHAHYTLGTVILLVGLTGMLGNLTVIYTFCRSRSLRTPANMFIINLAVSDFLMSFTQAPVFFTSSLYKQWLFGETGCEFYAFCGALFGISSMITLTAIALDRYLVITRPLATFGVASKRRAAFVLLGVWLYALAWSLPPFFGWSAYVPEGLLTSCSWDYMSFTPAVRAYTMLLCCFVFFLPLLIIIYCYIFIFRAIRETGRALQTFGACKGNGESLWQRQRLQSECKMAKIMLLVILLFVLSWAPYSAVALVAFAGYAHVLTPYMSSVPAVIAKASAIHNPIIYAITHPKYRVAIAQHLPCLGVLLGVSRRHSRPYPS

[1] = relative peak cAMP response vs no AA92593

Which “Hill fitting parameter rate of dose-response curve” value (mouse melanopsin WT) does the source give for `COc1ccc(S(=O)(=O)N2CCCCC2)cc1C` [AA92593] here?
Its value is −1.15 ± 0.18.

And the IC50 (mouse melanopsin WT; 0.1 μM 9-cis-retinal, white light 10 s, n = 3, read-out: IC50, reduction in peak cAMP responses upon Gsα/q11 activation)?
Its IC50 is 2980 ± 580 nM.

And the “Hill fitting parameter max of dose-response curve” value (mouse melanopsin WT; [1])?
Its value is 98.86 ± 1.11.

And the “Hill fitting parameter min of dose-response curve” value (mouse melanopsin WT; [1])?
Its value is 46.53 ± 4.15.

What about the “effect on endogenous G protein-induced cAMP responses” value (human melanopsin) of the same compound?
The value was “inhibited”.
